Measured values published in US10202361B2, “Pyridazinones as herbicides” (E I DU PONT DE NEMOURS AND COMPANY, priority 2014, dated 2019).
Like-named read-outs stand apart in the source and are kept apart here.

What was measured:
Test in all cases: Test C pre-/postemergence greenhouse herbicide test
Assay type in all cases: in vivo
[1] = system: pigweed (Amaranthus retroflexus); conditions: Amaranthus retroflexus, Pigweed, read-out: Plant response rating; for pest or weed control at 62 g/ha: 62 g ai/ha; for pest or weed control at 125 g/ha: 125 g ai/ha; for pest or weed control at 250 g/ha: 250 g ai/ha
How it was run: (§1)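 Visual ratings, 0 = no effect, 100 = complete control, vs untreated controls at 13–15 d. Pre: seeds in loam/sand. Post: 2–18 cm plants (1–4 leaf), peat/vermiculite mix. Surfactant-containing solvent formulation; greenhouse.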

[2] = system: blackgrass (Alopecurus myosuroides); conditions: Alopecurus myosuroides, Blackgrass, read-out: Plant response rating; for pest or weed control at 31 g/ha: 31 g ai/ha; for pest or weed control at 62 g/ha: 62 g ai/ha; for pest or weed control at 125 g/ha: 125 g ai/ha; for pest or weed control at 250 g/ha: 250 g ai/ha
How it was run: as §1

[3] = system: lambsquarters (Chenopodium album)
How it was run: as §1

[4] = system: oat, wild (wild oat, Avena fatua); conditions: Postemergence
How it was run: as §1

[5] = system: johnsongrass (Sorghum halepense); conditions: Sorghum halepense, Johnsongrass, read-out: Plant response rating; for pest or weed control at 31 g/ha: 31 g ai/ha; for pest or weed control at 62 g/ha: 62 g ai/ha; for pest or weed control at 125 g/ha: 125 g ai/ha; for pest or weed control at 250 g/ha: 250 g ai/ha
How it was run: as §1

[6] = system: ragweed (common ragweed, Ambrosia elatior); conditions: Ambrosia artemisiifolia, Ragweed, read-out: Plant response rating; for pest or weed control at 31 g/ha: 31 g ai/ha; for pest or weed control at 62 g/ha: 62 g ai/ha; for pest or weed control at 125 g/ha: 125 g ai/ha; for pest or weed control at 250 g/ha: 250 g ai/ha
How it was run: as §1

[7] = system: nutsedge, yellow (yellow nutsedge, Cyperus esculentus); conditions: Cyperus, Nutsedge, Yellow, read-out: Plant response rating; for pest or weed control at 31 g/ha: 31 g ai/ha; for pest or weed control at 62 g/ha: 62 g ai/ha; for pest or weed control at 125 g/ha: 125 g ai/ha; for pest or weed control at 250 g/ha: 250 g ai/ha
How it was run: as §1

[8] = system: waterhemp (common waterhemp, Amaranthus rudis); conditions: Waterhemp
How it was run: as §1

[9] = system: wheat (winter wheat, Triticum aestivum); conditions: Triticum aestivum, Wheat, read-out: Plant response rating; for plant injury at 62 g/ha: 62 g ai/ha; for plant injury at 125 g/ha: 125 g ai/ha; for plant injury at 250 g/ha: 250 g ai/ha
How it was run: as §1

[10] = system: barnyardgrass (Echinochloa crus-galli); conditions: Barnyardgrass
How it was run: as §1

[11] = system: crabgrass, Large (large crabgrass, Digitaria sanguinalis); conditions: Digitaria sanguinalis, Crabgrass, Large, read-out: Plant response rating; for pest or weed control at 31 g/ha: 31 g ai/ha; for pest or weed control at 62 g/ha: 62 g ai/ha; for pest or weed control at 125 g/ha: 125 g ai/ha; for pest or weed control at 250 g/ha: 250 g ai/ha
How it was run: as §1

corn (Zea mays) = conditions: Zea mays, Corn, read-out: Plant response rating; for plant injury at 31 g/ha: 31 g ai/ha; for plant injury at 62 g/ha: 62 g ai/ha; for plant injury at 125 g/ha: 125 g ai/ha; for plant injury at 250 g/ha: 250 g ai/ha
How it was run: as §1

COc1cc(=O)n(-c2ccc(F)cc2)nc1Cc1ccnc(C(F)(F)F)c1 [Compound 17, 2-(4-fluorophenyl)-5-methoxy-6-[[2-(trifluoromethyl)-4-pyridinyl]methyl]-3 (2H)-pyridazinone]
pest or weed control at 62 g/ha ([1]; post-emergence, Postemergence): 60%
pest or weed control at 125 g/ha ([1]; post-emergence, Postemergence): 60%
pest or weed control at 250 g/ha ([1]; post-emergence, Postemergence): 70%
pest or weed control at 31 g/ha ([1]; pre-emergence, Preemergence, 31 g ai/ha): 100%
pest or weed control at 62 g/ha ([1]; pre-emergence, Preemergence): 100%
pest or weed control at 125 g/ha ([1]; pre-emergence, Preemergence): 100%
pest or weed control at 250 g/ha ([1]; pre-emergence, Preemergence): 100%
pest or weed control at 31 g/ha ([2]; post-emergence, Postemergence): 5%
pest or weed control at 62 g/ha ([2]; post-emergence, Postemergence): 5%
pest or weed control at 125 g/ha ([2]; post-emergence, Postemergence): 5%
pest or weed control at 250 g/ha ([2]; post-emergence, Postemergence): 5%
pest or weed control at 31 g/ha ([2]; pre-emergence, Preemergence): 50%
pest or weed control at 62 g/ha ([2]; pre-emergence, Preemergence): 80%
pest or weed control at 125 g/ha ([2]; pre-emergence, Preemergence): 90%
pest or weed control at 250 g/ha ([2]; pre-emergence, Preemergence): 95%
Plant response rating ([3]; Postemergence, 31 g ai/ha): 75
Plant response rating ([3]; Postemergence, 62 g ai/ha): 75
Plant response rating ([3]; Postemergence, 125 g ai/ha): 90
Plant response rating ([3]; Postemergence, 250 g ai/ha): 90
Plant response rating ([3]; Preemergence, 31 g ai/ha): 95
Plant response rating ([3]; Preemergence, 62 g ai/ha): 95
Plant response rating ([3]; Preemergence, 125 g ai/ha): 95
Plant response rating ([3]; Preemergence, 250 g ai/ha): 98
Plant response rating ([4]; 31 g ai/ha): 10
Plant response rating ([4]; 62 g ai/ha): 15
Plant response rating ([4]; 125 g ai/ha): 40
Plant response rating ([4]; 250 g ai/ha): 45
pest or weed control at 31 g/ha ([5]; post-emergence, Postemergence): 5%
pest or weed control at 62 g/ha ([5]; post-emergence, Postemergence): 5%
pest or weed control at 125 g/ha ([5]; post-emergence, Postemergence): 5%
pest or weed control at 250 g/ha ([5]; post-emergence, Postemergence): 65%
pest or weed control at 31 g/ha ([5]; pre-emergence, Preemergence): 70%
pest or weed control at 62 g/ha ([5]; pre-emergence, Preemergence): 95%
pest or weed control at 125 g/ha ([5]; pre-emergence, Preemergence): 98%
pest or weed control at 250 g/ha ([5]; pre-emergence, Preemergence): 100%
pest or weed control at 31 g/ha ([6]; post-emergence, Postemergence): 40%
pest or weed control at 62 g/ha ([6]; post-emergence, Postemergence): 70%
pest or weed control at 125 g/ha ([6]; post-emergence, Postemergence): 80%
pest or weed control at 250 g/ha ([6]; post-emergence, Postemergence): 85%
pest or weed control at 31 g/ha ([6]; pre-emergence, Preemergence): 35%
pest or weed control at 62 g/ha ([6]; pre-emergence, Preemergence): 65%
pest or weed control at 125 g/ha ([6]; pre-emergence, Preemergence): 80%
pest or weed control at 250 g/ha ([6]; pre-emergence, Preemergence): 98%
pest or weed control at 31 g/ha ([7]; post-emergence, Postemergence): 5%
pest or weed control at 62 g/ha ([7]; post-emergence, Postemergence): 5%
pest or weed control at 125 g/ha ([7]; post-emergence, Postemergence): 10%
pest or weed control at 250 g/ha ([7]; post-emergence, Postemergence): 10%
pest or weed control at 31 g/ha ([7]; pre-emergence, Preemergence): 20%
pest or weed control at 62 g/ha ([7]; pre-emergence, Preemergence): 30%
pest or weed control at 125 g/ha ([7]; pre-emergence, Preemergence): 55%
pest or weed control at 250 g/ha ([7]; pre-emergence, Preemergence): 75%
Plant response rating ([8]; Postemergence, 31 g ai/ha): 60
Plant response rating ([8]; Postemergence, 125 g ai/ha): 85
Plant response rating ([8]; Postemergence, 250 g ai/ha): 85
Plant response rating ([8]; Preemergence, 62 g ai/ha): 100
Plant response rating ([8]; Preemergence, 125 g ai/ha): 100
Plant response rating ([8]; Preemergence, 250 g ai/ha): 100
plant injury at 31 g/ha ([9]; post-emergence, Postemergence, 31 g ai/ha): 5%
plant injury at 62 g/ha ([9]; post-emergence, Postemergence): 5%
plant injury at 125 g/ha ([9]; post-emergence, Postemergence): 5%
plant injury at 250 g/ha ([9]; post-emergence, Postemergence): 10%
plant injury at 62 g/ha ([9]; pre-emergence, Preemergence): 5%
plant injury at 125 g/ha ([9]; pre-emergence, Preemergence): 50%
plant injury at 250 g/ha ([9]; pre-emergence, Preemergence): 65%
Plant response rating ([10]; Postemergence, 31 g ai/ha): 5
Plant response rating ([10]; Postemergence, 62 g ai/ha): 5
Plant response rating ([10]; Postemergence, 125 g ai/ha): 10
Plant response rating ([10]; Postemergence, 250 g ai/ha): 35
Plant response rating ([10]; Preemergence, 31 g ai/ha): 80
Plant response rating ([10]; Preemergence, 62 g ai/ha): 90
Plant response rating ([10]; Preemergence, 125 g ai/ha): 100
Plant response rating ([10]; Preemergence, 250 g ai/ha): 100
pest or weed control at 31 g/ha ([11]; post-emergence, Postemergence): 10%
pest or weed control at 62 g/ha ([11]; post-emergence, Postemergence): 10%
pest or weed control at 125 g/ha ([11]; post-emergence, Postemergence): 15%
pest or weed control at 250 g/ha ([11]; post-emergence, Postemergence): 40%
pest or weed control at 31 g/ha ([11]; pre-emergence, Preemergence): 100%
pest or weed control at 62 g/ha ([11]; pre-emergence, Preemergence): 100%
pest or weed control at 125 g/ha ([11]; pre-emergence, Preemergence): 100%
pest or weed control at 250 g/ha ([11]; pre-emergence, Preemergence): 100%
plant injury at 31 g/ha (corn (Zea mays); post-emergence, Postemergence): 10%
plant injury at 62 g/ha (corn (Zea mays); post-emergence, Postemergence): 15%
plant injury at 125 g/ha (corn (Zea mays); post-emergence, Postemergence): 15%
plant injury at 250 g/ha (corn (Zea mays); post-emergence, Postemergence): 15%
plant injury at 31 g/ha (corn (Zea mays); pre-emergence, Preemergence): 45%
plant injury at 62 g/ha (corn (Zea mays); pre-emergence, Preemergence): 65%
plant injury at 125 g/ha (corn (Zea mays); pre-emergence, Preemergence): 85%
plant injury at 250 g/ha (corn (Zea mays); pre-emergence, Preemergence): 100%
